Experimental data reported in ChEMBL document CHEMBL1671830, “Discovery of PSI-353661, a Novel Purine Nucleotide Prodrug for the Treatment of HCV Infection” (ACS Med Chem Lett, 2011).

How the values were obtained:
[1] = system: Hepatitis C virus; experiment: Antiviral activity against HCV infected in human HuH7 cells by cell-based replicon assay; type: functional, Hepacivirus hominis, Huh-7; details: Hepatitis C virus, Huh-7
[2] = Cytotoxicity against human HepG2 cells after 96 hrs by MTS assay; type: cell-based
[3] = Cytotoxicity against human HuH7 cells after 96 hrs by MTS assay; type: cell-based, Huh-7
[4] = Cytotoxicity against human […] cells after 96 hrs by MTS assay; type: cell-based
[5] = Cytotoxicity against human CEM cells after 96 hrs by MTS assay; type: cell-based; details: CEM (CCRF-CEM) cells

| EC90 [1] | Compound | CC50 at 96 h [2] | CC50 at 96 h [3] | CC50 at 96 h [4] | CC50 at 96 h [5] |
| --- | --- | --- | --- | --- | --- |
| 2.38 µM | CCOC(=O)[C@H](C)NP(=O)(OC[C@H]1O[C@@H](n2cnc3c(O)nc(N)nc32)[C@](C)(F)[C@@H]1O)Oc1ccccc1 (stereo partly specified) | > 100 µM | > 100 µM | > 100 µM | > 100 µM |
| 0.01 µM | CCOC(=O)[C@H](C)NP(=O)(OC[C@H]1O[C@@H](n2cnc3c(OCC)nc(N)nc32)[C@](C)(F)[C@@H]1O)Oc1ccccc1 (stereo partly specified) | 61 µM | 47 µM | 68 µM | 37 µM |
| 0.013 µM | CCCOc1nc(N)nc2c1ncn2[C@@H]1O[C@H](COP(=O)(N[C@@H](C)C(=O)OCC)Oc2ccccc2)[C@@H](O)[C@@]1(C)F (stereo partly specified) |  |  |  |  |
| 0.02 µM | CCOC(=O)[C@H](C)NP(=O)(OC[C@H]1O[C@@H](n2cnc3c(OCCOC)nc(N)nc32)[C@](C)(F)[C@@H]1O)Oc1ccccc1 (stereo partly specified) |  |  |  |  |
| 0.027 µM | CCOC(=O)[C@H](C)NP(=O)(OC[C@H]1O[C@@H](n2cnc3c(OCCF)nc(N)nc32)[C@](C)(F)[C@@H]1O)Oc1ccccc1 (stereo partly specified) |  |  |  |  |
| 0.047 µM | CCOC(=O)[C@H](C)NP(=O)(OC[C@H]1O[C@@H](n2cnc3c(SCC)nc(N)nc32)[C@](C)(F)[C@@H]1O)Oc1ccccc1 (stereo partly specified) |  |  |  |  |
| 0.007 µM | CCOC(=O)[C@H](C)NP(=O)(OC[C@H]1O[C@@H](n2cnc3c(N4CCC4)nc(N)nc32)[C@](C)(F)[C@@H]1O)Oc1ccccc1 (stereo partly specified) | 75 µM | 84 µM | 84 µM | 39 µM |
| 0.0098 µM | CCOC(=O)[C@H](C)NP(=O)(OC[C@H]1O[C@@H](n2cnc3c(NC4CC4)nc(N)nc32)[C@](C)(F)[C@@H]1O)Oc1ccccc1 (stereo partly specified) | > 100 µM | > 100 µM | > 100 µM | 45 µM |
| 0.024 µM | CCOC(=O)[C@H](C)NP(=O)(OC[C@H]1O[C@@H](n2cnc3c(NC4CCC4)nc(N)nc32)[C@](C)(F)[C@@H]1O)Oc1ccccc1 (stereo partly specified) |  |  |  |  |
| 0.026 µM | CCOC(=O)[C@H](C)NP(=O)(OC[C@H]1O[C@@H](n2cnc3c(NC4CCCC4)nc(N)nc32)[C@](C)(F)[C@@H]1O)Oc1ccccc1 (stereo partly specified) |  |  |  |  |
| 0.446 µM | C[C@H](NP(=O)(OC[C@H]1O[C@@H](n2cnc3c(O)nc(N)nc32)[C@](C)(F)[C@@H]1O)Oc1ccccc1)C(=O)OC1CCCCC1 (stereo partly specified) | > 100 µM | > 100 µM | > 100 µM | > 100 µM |
| 0.0081 µM | COC(=O)[C@H](C)NP(=O)(OC[C@H]1O[C@@H](n2cnc3c(OC)nc(N)nc32)[C@](C)(F)[C@@H]1O)Oc1ccccc1 (stereo partly specified) | 71 µM | > 100 µM | > 100 µM | 20 µM |
| 0.0146 µM | CCCOc1nc(N)nc2c1ncn2[C@@H]1O[C@H](COP(=O)(N[C@@H](C)C(=O)OC)Oc2ccccc2)[C@@H](O)[C@@]1(C)F (stereo partly specified) | 45 µM | 39 µM | 39 µM | 17 µM |
| 0.033 µM | CCCOc1nc(N)nc2c1ncn2[C@@H]1O[C@H](COP(=O)(N[C@@H](C)C(=O)OC(C)C)Oc2ccccc2)[C@@H](O)[C@@]1(C)F (stereo partly specified) | > 100 µM | 49 µM | > 100 µM | 44 µM |
| 0.019 µM | CC(C)OC(=O)[C@H](C)NP(=O)(OC[C@H]1O[C@@H](n2cnc3c(N4CCC4)nc(N)nc32)[C@](C)(F)[C@@H]1O)Oc1ccccc1 (stereo partly specified) | 100 µM | 53 µM | 74 µM | 74 µM |
| 0.0082 µM | COC(=O)[C@H](C)NP(=O)(OC[C@H]1O[C@@H](n2cnc3c(NC4CC4)nc(N)nc32)[C@](C)(F)[C@@H]1O)Oc1ccccc1 (stereo partly specified) | > 100 µM | > 100 µM | > 100 µM | 34 µM |

| Compound | EC90 [1] | CC50 at 96 h [2] | CC50 at 96 h [3] | CC50 at 96 h [4] | CC50 at 96 h [5] |
| --- | --- | --- | --- | --- | --- |
| CCOc1nc(N)nc2c1ncn2[C@@H]1O[C@H](COP(=O)(N[C@@H](C)C(=O)OC(C)C)Oc2ccccc2)[C@@H](O)[C@@]1(C)F (stereo partly specified) | 0.02 µM | > 100 µM | 59 µM | > 100 µM | 93 µM |
